Experimental data reported in article PMC11571215, “Optimization of Antiproliferative Properties of Triimine Copper(II) Complexes” (Journal of Medicinal Chemistry, 2024).

Tests used:
Format in all cases: cell-based, human
HCT116-DoxR cells [1] = assay: Autophagy induction (CYTO-ID green, flow cytometry); conditions: 48 h; complexes at IC50, Dox 6 μM, Cis 5 μM, rapamycin 1500 nM
Text: Furthermore, previous studies have shown that complexes containing terpyridine derivatives have the ability to trigger both apoptosis and autophagy cell death mechanisms in cancer cells simultaneously.[38] This convergence of death pathways may arise from an adaptive response of the heterogeneous tumor cell population.[38] In this context, understanding the mechanism by which cells lose viability in the presence of the two Cu(II) complexes with the simultaneous induction of apoptosis and autophagy becomes crucial. Autophagy is a highly conserved catabolic process crucial for maintaining cellular homeostasis but is also associated with type II programmed cell death.[75] It involves intracellular degradation through autophagolysosomes responsible for breaking down luminal content and enabling recycling of cellular components.[76],[77] The assessment of the complexes’ ability to induce autophagy was conducted using flow cytometry, employing the CYTO-ID green detection reagent. This probe emits green fluorescence, marking the autophagic vacuoles within the cell. Higher fluorescence indicates a greater proportion of autophagolysosomes.[78] Three positive controls were used: Dox, Cis, and rapamycin (1500 nM), whose concentration was previously optimized for the HCT116-DoxR cell line in the laboratory.[64] Rapamycin is known to induce autophagy through its mechanistic target, mTOR.
Cell death via autophagy was evaluated using the Autophagy Assay Kit (ab139484; Abcam, Cambridge, United Kingdom), according to the manufacturers’ instructions. HCT116-DoxR cells were seeded at a density of 1 × 10^5 cells/mL in 6-well plates for 24 h, under the same conditions described before. After this incubation period, the culture medium was replaced with a fresh medium containing the copper complexes under evaluation at their IC50 concentration. A 0.1% (v/v) DMSO solution was used as the negative (vehicle) control, and 6 μM Dox and 5 μM Cis were used as positive controls. The cells were incubated again for 48 h. Rapamycin (1500 nM) was also added as a positive control, and it was added 18 h before the end of the 48 h incubation. After this period, the supernatant was discarded, and each well was washed with PBS 1×. Subsequently, cells were detached using TrypLE Express and washed with phenol red-free DMEM medium containing 5% (v/v) FBS. Cells were incubated with Green Stain Solution in phenol red-free DMEM medium containing 5% (v/v) FBS for 30 min at RT. After this period, the samples were washed and then resuspended in Assay Buffer 1×. The samples were analyzed using an Attune Acoustic Focusing Flow Cytometer (Life Technologies, Carlsbad, USA), and the results were analyzed via the Attune Cytometric software.

[2] = test system: HCT116 cells (colorectal carcinoma); assay: MTS cell viability assay, HCT116 2D; conditions: for IC50: 48 h of exposure, MTS, relative IC50, mean + SEM; for SI HCT116: ratio IC50 fibroblasts / IC50 HCT116
Protocol: The antiproliferative effect of the Cu(II) complexes in tumor and healthy cell lines was assessed through the MTS assay, a colorimetric method that is widely used to evaluate cellular viability, specifically mitochondrial viability.[53],[54] Cellular viability was determined after 48 h exposure to a concentration range (0.1–50 μM) of Cu(II) complexes in three tumor cell lines. […] Additionally, the viability of healthy primary dermal fibroblasts was performed as a comparison of the complexes’ antiproliferative effects in normal cells.
Cellular viability assays were performed using HCT116, HCT116-DoxR, and A2780 cancer cell lines as well as normal human primary fibroblasts. Cells were seeded at a density of 0.75 × 10^5 cells/mL in 96-well plates and incubated at 37 °C with 5% (v/v) CO2 for 24 h. After this incubation period, the copper complexes were accurately weighed and immediately dissolved in 100% (v/v) dimethyl sulfoxide (DMSO). Subsequently, the complexes were diluted to the final concentration using a cell culture medium. The culture medium in each well was replaced with fresh medium containing varying concentrations of the complexes (ranging from 0.01 to 50 μM). Negative controls contained culture medium with 0.1% (v/v) DMSO, and positive controls contained 0.4 μM Dox.
After an additional 48 h of incubation under the same conditions, cellular viability was assessed using the CellTiter 96 Aqueous One Solution Cell Proliferation Assay kit (Promega, Madison, USA). Metabolically active cells contain mitochondrial dehydrogenases that can reduce 3-(4,5-dimethylthiazol-2-yl)-5-(3-carboxymethoxyphenyl)-2-(4-sulfophenyl)-2H-tetrazolium, the inner salt (MTS) to formazan. The absorbance of formazan, measured at 490 nm in a microplate reader (Tecan Infinite M200, Tecan, Männedorf, Switzerland), is directly proportional to the number of viable cells.[104]
The cell viability versus concentration graphics were analyzed using Prism 8 software (GraphPad) to determine the half-maximal inhibitory concentration (IC50) of each complex for the respective cell line. Additionally, the selective index (SI) for each complex was calculated by dividing the IC50 of human fibroblasts by the IC50 values of the tested cancer cell lines.

HCT116-DoxR cells [3] = assay: ROS production (H2DCF-DA, flow cytometry); conditions: 48 h; complexes at IC50, Dox 6 μM, Cis 5 μM
Text: The literature widely describes the relationship between the induction of these types of programmed cell death and the production of reactive oxygen species (ROS).[79]−[81] ROS can arise from endogenous or exogenous sources and play a role in carcinogenesis and tumor development, causing DNA damage.[81],[82] The accumulation of high ROS levels results in oxidative stress in cancer cells, a condition that can be exploited by surpassing the intrinsic antioxidant capacity of tumor cells as a targeted therapeutic approach.[75] It is known that Cu(II) complexes induce ROS production.[38] In this regard, the production of reactive oxygen species was quantified in HCT116-DoxR cells using the 2′,7′-dichlorodihydrofluorescein diacetate (H2DCF-DA) probe, which is rapidly oxidized in the presence of ROS, generating the compound 2′,7′-dichlorodihydrofluorescein (DCF), whose fluorescence can be detected by flow cytometry.[71] The fluorescence intensity is directly proportional to the amount of intracellular ROS. […] TBHP is a widely used organic peroxide in oxidative stress studies as it activates caspase-mediated apoptosis and ROS production.[83]
The quantification of reactive oxygen species (ROS) production was performed using the probe dichlorofluorescein diacetate (H2DCF-DA) (molecular probes: reactive oxygen species (ROS) detection reagents, Invitrogen, USA). Briefly, HCT116-DoxR cells were seeded in six-well plates at a density of 1 × 10^5 cells/mL and incubated for 24 h under the conditions mentioned before. After the incubation period, the medium was replaced with fresh medium containing the tested copper complexes at their IC50 concentrations. 0.1% (v/v) DMSO solution was used as the negative control, and 6 μM Dox, 5 μM Cis, and 42 μM Tertbutyl Hydroperoxide (TBHP) were used as positive controls. The cells were incubated again under the same conditions mentioned above for 48 h. Later, the culture medium was removed, cells were washed with PBS 1× and TrypLE Express to detach them and then they were washed again with PBS 1×. After that, cells were incubated in a solution of 10 μM H2DCF-DA in PBS 1x for 20 min at 37 °C. Subsequently, the samples were analyzed by the Attune Acoustic Focusing Flow Cytometer (Life Technologies, Carlsbad, USA), and the obtained data were processed by the respective software (Attune Cytometric software).

Structure (SMILES) | increase in autophagic vesicles compared to 0.1% DMSO control (HCT116-DoxR cells [1]) | IC50 [2] [nM] | ROS production higher than DMSO control (HCT116-DoxR cells [3]) [×] | SI HCT116 [2] | IC50 ([2]; Homo sapiens, HCT-116) [nM]
N.N.[Cl][Pt][Cl] [Cisplatin] | increase in green fluorescence intensity | 15600 ± 5300 | 2.2 | – | –
[Cl][Cu-3]12([Cl])[n+]3ccccc3-c3cc(-c4cccc5ccccc45)cc([n+]31)-c1cccc[n+]12 [Cu1a] | approximately 2 fold | 280 ± 30 | 1.42 | 33.1 | –
[Cl][Cu-3]12([Cl])[n+]3ccccc3-c3cc(-c4ccc5ccccc5c4)cc([n+]31)-c1cccc[n+]12 [Cu1b] | approximately 2 fold | 210 ± 50 | 1.48 | 63.3 | –
COc1cccc2c1C(=O)c1c(O)c3c(c(O)c1C2=O)C[C@@](O)(C(=O)CO)C[C@@H]3O[C@H]1C[C@H](N)[C@H](O)[C@H](C)O1 [Doxorubicin] | 2.2 fold | – | 1.8 | – | 500 ± 100
